According to publication PMC11062899, “De novo development of small cyclic peptides that are orally bioavailable” (Nature Chemical Biology, 2023):
Several values for one entry are separate records, joined by “and”; a condition that tells them apart may be missing. Identical values can stand only once. Each block holds one compound with its values, some of them ahead of it.

Legend:
[1] = Passive artificial membrane permeability (PAMPA); settings: for PAMPA permeability: % permeability: 50 μM, 12–18 h, acceptor concentration relative to equilibrium; for Papp at 50 μM / Permeability% Average / Permeability% R1 / Permeability% R3: PAMPA; for Papp at 50 μM: pH 7.4; for Permeability% Average: average of R1-R3; for Permeability% R1: replicate R1; for Permeability% R1 / Permeability% R3: TIC of top well sample relative to sample at theoretical equilibrium; for Permeability% R3: replicate R3
porcine pancreatin = test: Peptide stability in simulated intestinal fluid (SIF); type: in vitro ADME; settings: after 8 h vs 0 h (TIC); average of R1-R3
Experimental: (§1) Simulated gastric and intestinal fluids were prepared according to the States Pharmacopeia specifications (Test Solutions, United States Pharmacopeia 35, NF 30, 2012). SGF: 0.2 g of sodium chloride was dissolved in 50 ml of water, and the pH was adjusted to 1.2 by addition of 0.7 ml of 10 M hydrochloric acid. Then, 0.32 g of porcine pepsin (Sigma-Aldrich, P7125) was dissolved under gentle agitation, and the volume was filled up to 100 ml with Milli-Q water. SIF: 0.68 g of monobasic potassium phosphate was dissolved in 25 ml of Milli-Q water, and the pH was adjusted to 6.8 by adding 7.7 ml of a 0.2 M sodium hydroxide solution. Next, 1 g of porcine pancreatin (Sigma-Aldrich, P3292) was added under gentle agitation, and the volume was adjusted to 100 ml with Milli-Q water to afford a fine suspension. To test the stability in simulated gastrointestinal fluids, 396 μl of SGF or SIF was pre-heated at 37 °C for 10 min, and 4 μl of a 1 mM peptide solution in DMSO was added. […] Supernatant was analyzed by LC–MS to measure the peptide concentrations at the different timepoints. Residual peptide was calculated by normalizing the concentrations measured at T1 to T0.

[2] = as above; type: in vitro ADME, porcine; settings: simulated gi fluid; 8 h, 37 °C, pH 6.8; read-out: Proteolytic stability: SIF (8 h) % remaining
Experimental: as §1

[3] = Metabolic stability in rat liver microsomes (RLMs); settings: rat, microsomes
porcine pepsin = target: T1, porcine pepsin (Sus scrofa, UniProt P00791); test: Peptide stability in simulated gastric fluid (SGF); type: in vitro ADME; settings: for SGF stability, Residual peptide Average / SGF stability, Residual peptide: after 8 h vs 0 h (TIC); for SGF stability, Residual peptide Average: average of R1-R3; for SGF stability, Residual peptide: single replicates R1-R3; for remaining at 8 h: simulated gi fluid, 37 °C, pH 1.2, read-out: Proteolytic stability: SGF (8 h) % remaining
T1 construct: 0.32 g of porcine pepsin (Sigma-Aldrich, P7125) was dissolved under gentle agitation; purchased Sigma-Aldrich P7125
T1 sequence (P00791 60-385): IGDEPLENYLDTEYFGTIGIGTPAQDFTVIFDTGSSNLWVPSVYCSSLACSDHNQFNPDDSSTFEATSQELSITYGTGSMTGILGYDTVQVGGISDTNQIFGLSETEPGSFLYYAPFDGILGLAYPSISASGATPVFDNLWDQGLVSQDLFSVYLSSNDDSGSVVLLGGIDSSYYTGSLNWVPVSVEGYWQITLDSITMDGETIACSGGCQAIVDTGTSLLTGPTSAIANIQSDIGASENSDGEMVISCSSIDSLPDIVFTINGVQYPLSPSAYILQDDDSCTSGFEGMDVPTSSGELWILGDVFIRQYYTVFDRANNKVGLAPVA
Experimental: as §1

rat α-thrombin = target: T2, rat α-thrombin (Rattus norvegicus, UniProt P18292); test: Protease inhibition, Ki for rat α-thrombin (fluorogenic substrate Z-Gly-Gly-Arg-AMC); type: biochemical; settings: replicates R1-R3
T2 construct: rat α-thrombin (Molecular Innovations) were used at final concentrations of 2 nM and 3 nM; purchased Molecular Innovations
Summary of the method: (§2)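 Ki derived through Cheng–Prusoff from IC50s (four-parameter logistic fit) against activity of peptide-free controls. Product fluorescence was read every 3 min over 30 min at 25 °C, substrate Z-Gly-Gly-Arg-AMC at 50 μM. Enzyme was 2 nM human or 3 nM rat α-thrombin, pH 7.4 buffer.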

human α-thrombin = human α-thrombin (Homo sapiens, UniProt P00734); test: Protease inhibition, Ki for human α-thrombin (fluorogenic substrate Z-Gly-Gly-Arg-AMC); type: biochemical; settings: replicates R1-R3
Summary of the method: as §2

[4] = CL (ul/min/mg protein) R1, RLM CL, replicate R1
[5] = CL (ul/min/mg protein) R2, RLM CL, replicate R2
[6] = CL (ul/min/mg protein) R3, RLM CL, replicate R3
[7] = Half Life (min) R1, RLM metabolic stability, replicate R1, 0-60 min
[8] = Half Life (min) R2, RLM metabolic stability, replicate R2, 0-60 min
[9] = Half Life (min) R3, RLM metabolic stability, replicate R3, 0-60 min
[10] = Metabolic stability: Half life T1/2 (min), RLMs, mean and SD, three measurements
[11] = Metabolic stability: RLM CL (ul/min/mg), RLMs, mean and SD, three measurements
[12] = peptide 1.33E+02 uM, slope of proteolytic substrate cleavage over time

- PAMPA permeability: % permeability [1]: 20 ± 10%
- Papp at 50 μM [1]: 1.35 ×10⁻⁶ cm/s
- Permeability% Average [1]: 20.3%
- Permeability% R1 [1]: 29.62%
- Permeability% R3 [1]: 22.19%
- SIF stability, Residual peptide Average (porcine pancreatin): 87.61
- remaining at 8 h [2]: 88 ± 18%
- microsomal CLint [3, 4]: 87.8 µL/min/mg
- microsomal CLint [3, 5]: 76.3 µL/min/mg
- microsomal CLint [3, 6]: 81.9 µL/min/mg
- half-life [3, 7]: 15.8 min
- half-life [3, 8]: 18.2 min
- half-life [3, 9]: 16.9 min
- half-life [3, 10]: 17 ± 1 min
- microsomal CLint [3, 11]: 82 ± 5 µL/min/mg
- SGF stability, Residual peptide Average (porcine pepsin): 98.62
- SGF stability, Residual peptide (porcine pepsin): 100.84 and 98.47 and 96.53
- remaining at 8 h (porcine pepsin): 99 ± 2%
- Rat alpha thrombin inhibition, slope normalized to DMSO (rat α-thrombin; [12]): 1.8 and 3.0 and 9.6
- Rat alpha thrombin inhibition, slope normalized to DMSO (rat α-thrombin; peptide 1.67E+01 uM): 7.1 and 6.4 and 13.3
- Rat alpha thrombin inhibition, slope normalized to DMSO (rat α-thrombin; peptide 2.08E+00 uM): 34.4 and 33.4 and 32.9
- Rat alpha thrombin inhibition, slope normalized to DMSO (rat α-thrombin; peptide 3.33E+01 uM): 4.1 (2×) and 10.8
- Rat alpha thrombin inhibition, slope normalized to DMSO (rat α-thrombin; peptide 4.17E+00 uM): 21.9 and 19.6 and 23.7
- Rat alpha thrombin inhibition, slope normalized to DMSO (rat α-thrombin; peptide 6.67E+01 uM): 2.7 and 2.8 and 9.5
- Rat alpha thrombin inhibition, slope normalized to DMSO (rat α-thrombin; peptide 8.33E+00 uM): 12.5 and 11.7 and 18.6
- Human alpha thrombin inhibition, slope normalized to DMSO (human α-thrombin; peptide 1.02E-03 uM): 100.6 and 98.3 and 99.0
- Human alpha thrombin inhibition, slope normalized to DMSO (human α-thrombin; peptide 1.04E+00 uM): 68.1 and 68.7 and 68.9
- Human alpha thrombin inhibition, slope normalized to DMSO (human α-thrombin; peptide 1.27E-04 uM): 101.1 and 97.6 and 104.9
- Human alpha thrombin inhibition, slope normalized to DMSO (human α-thrombin; peptide 1.30E-01 uM): 90.7 and 100.7 and 97.5
- Human alpha thrombin inhibition, slope normalized to DMSO (human α-thrombin; [12]): 4.8 and 5.5 and 1.6
- Human alpha thrombin inhibition, slope normalized to DMSO (human α-thrombin; peptide 1.63E-02 uM): 110.6 and 96.8 and 100.1
- Human alpha thrombin inhibition, slope normalized to DMSO (human α-thrombin; peptide 1.67E+01 uM): 12.1 and 12.4 and 14.6
- Human alpha thrombin inhibition, slope normalized to DMSO (human α-thrombin; peptide 2.03E-03 uM): 101.2 and 99.3 and 100.0
- Human alpha thrombin inhibition, slope normalized to DMSO (human α-thrombin; peptide 2.08E+00 uM): 65.0 and 52.9 and 51.5
- Human alpha thrombin inhibition, slope normalized to DMSO (human α-thrombin; peptide 2.54E-04 uM): 99.3 and 97.7 and 101.2
- Human alpha thrombin inhibition, slope normalized to DMSO (human α-thrombin; peptide 2.60E-01 uM): 95.0 and 89.4 and 94.7
- Human alpha thrombin inhibition, slope normalized to DMSO (human α-thrombin; peptide 3.18E-05 uM): 97.8 and 94.7 and 100.8
- Human alpha thrombin inhibition, slope normalized to DMSO (human α-thrombin; peptide 3.26E-02 uM): 94.1 and 101.2 and 106.3
- Human alpha thrombin inhibition, slope normalized to DMSO (human α-thrombin; peptide 3.33E+01 uM): 8.2 and 10.1 and 12.2
- Human alpha thrombin inhibition, slope normalized to DMSO (human α-thrombin; peptide 4.07E-03 uM): 102.2 and 130.5 and 101.9
- Human alpha thrombin inhibition, slope normalized to DMSO (human α-thrombin; peptide 4.17E+00 uM): 34.4 and 33.3 and 35.3
- Human alpha thrombin inhibition, slope normalized to DMSO (human α-thrombin; peptide 5.09E-04 uM): 99.7 and 107.7 and 101.3
- Human alpha thrombin inhibition, slope normalized to DMSO (human α-thrombin; peptide 5.21E-01 uM): 82.1 and 87.9 and 83.3
- Human alpha thrombin inhibition, slope normalized to DMSO (human α-thrombin; peptide 6.36E-05 uM): 100.1 and 97.7 and 104.2
- Human alpha thrombin inhibition, slope normalized to DMSO (human α-thrombin; peptide 6.51E-02 uM): 100.7 and 90.2 and 100.6
- Human alpha thrombin inhibition, slope normalized to DMSO (human α-thrombin; peptide 6.67E+01 uM): 5.7 and 5.6 and 9.1
- Human alpha thrombin inhibition, slope normalized to DMSO (human α-thrombin; peptide 8.14E-03 uM): 98.8 and 99.9 and 103.6
- Human alpha thrombin inhibition, slope normalized to DMSO (human α-thrombin; peptide 8.33E+00 uM): 23.8 and 18.1 and 21.3
SMILES: O=C1CC2CCN(CC2)C(=O)[C@H](Cc2ccccc2)NC(=O)[C@@H](NC(=O)c2ccc(Cl)s2)CSCc2cccc(n2)CSCCN1 [compound 15]

- PAMPA permeability: % permeability [1]: 8.6 ± 3.0%
- Papp at 50 μM [1]: 0.575 ×10⁻⁶ cm/s
- Permeability% Average [1]: 8.6%
- Permeability% R1 [1]: 11.91%
- Permeability% R3 [1]: 7.66%
- SIF stability, Residual peptide Average (porcine pancreatin): 6.32
- remaining at 8 h [2]: 6.3 ± 1.9%
- microsomal CLint [3, 4]: 61 µL/min/mg
- microsomal CLint [3, 5]: 51.4 µL/min/mg
- microsomal CLint [3, 6]: 62.2 µL/min/mg
- half-life [3, 7]: 22.7 min
- half-life [3, 8]: 26.9 min
- half-life [3, 9]: 22.3 min
- half-life [3, 10]: 24 ± 2 min
- microsomal CLint [3, 11]: 58 ± 5 µL/min/mg
- SGF stability, Residual peptide Average (porcine pepsin): 98.52
- SGF stability, Residual peptide (porcine pepsin): 104.99 and 99.11 and 91.47
- remaining at 8 h (porcine pepsin): 99 ± 7%
- Rat alpha thrombin inhibition, slope normalized to DMSO (rat α-thrombin; [12]): 3.3 and 2.8 and 2.1
- Rat alpha thrombin inhibition, slope normalized to DMSO (rat α-thrombin; peptide 1.67E+01 uM): 6.6 and 5.4 and 5.1
- Rat alpha thrombin inhibition, slope normalized to DMSO (rat α-thrombin; peptide 2.08E+00 uM): 33.9 and 33.4 and 32.2
- Rat alpha thrombin inhibition, slope normalized to DMSO (rat α-thrombin; peptide 3.33E+01 uM): 4.4 and 3.4 and 3.5
- Rat alpha thrombin inhibition, slope normalized to DMSO (rat α-thrombin; peptide 4.17E+00 uM): 19.8 and 18.5 and 18.4
- Rat alpha thrombin inhibition, slope normalized to DMSO (rat α-thrombin; peptide 6.67E+01 uM): 3.3 and 1.7 and 2.4
- Rat alpha thrombin inhibition, slope normalized to DMSO (rat α-thrombin; peptide 8.33E+00 uM): 11.8 and 11.2 and 10.2
- Human alpha thrombin inhibition, slope normalized to DMSO (human α-thrombin; peptide 1.02E-03 uM): 95.7 (2×) and 101.7
- Human alpha thrombin inhibition, slope normalized to DMSO (human α-thrombin; peptide 1.04E+00 uM): 62.0 and 61.5 and 59.7
- Human alpha thrombin inhibition, slope normalized to DMSO (human α-thrombin; peptide 1.27E-04 uM): 99.4 and 101.3 and 98.3
- Human alpha thrombin inhibition, slope normalized to DMSO (human α-thrombin; peptide 1.30E-01 uM): 89.0 and 89.6 and 91.9
- Human alpha thrombin inhibition, slope normalized to DMSO (human α-thrombin; [12]): 4.8 and 2.4 and 6.7
- Human alpha thrombin inhibition, slope normalized to DMSO (human α-thrombin; peptide 1.63E-02 uM): 103.7 and 97.9 and 94.4
- Human alpha thrombin inhibition, slope normalized to DMSO (human α-thrombin; peptide 1.67E+01 uM): -1.3 and 11.2 and 10.7
- Human alpha thrombin inhibition, slope normalized to DMSO (human α-thrombin; peptide 2.03E-03 uM): 102.2 and 96.9 and 97.7
- Human alpha thrombin inhibition, slope normalized to DMSO (human α-thrombin; peptide 2.08E+00 uM): 40.1 and 46.6 and 47.4
- Human alpha thrombin inhibition, slope normalized to DMSO (human α-thrombin; peptide 2.54E-04 uM): 100.3 and 97.2 and 96.3
- Human alpha thrombin inhibition, slope normalized to DMSO (human α-thrombin; peptide 2.60E-01 uM): 83.3 and 73.2 and 85.9
- Human alpha thrombin inhibition, slope normalized to DMSO (human α-thrombin; peptide 3.18E-05 uM): 101.8 and 98.5 and 103.1
- Human alpha thrombin inhibition, slope normalized to DMSO (human α-thrombin; peptide 3.26E-02 uM): 95.9 and 94.2 and 94.5
- Human alpha thrombin inhibition, slope normalized to DMSO (human α-thrombin; peptide 3.33E+01 uM): 6.5 (2×) and 8.7
- Human alpha thrombin inhibition, slope normalized to DMSO (human α-thrombin; peptide 4.07E-03 uM): 101.7 and 97.8 and 102.2
- Human alpha thrombin inhibition, slope normalized to DMSO (human α-thrombin; peptide 4.17E+00 uM): 27.0 and 27.6 and 28.2
- Human alpha thrombin inhibition, slope normalized to DMSO (human α-thrombin; peptide 5.09E-04 uM): 97.5 and 98.8 and 97.2
- Human alpha thrombin inhibition, slope normalized to DMSO (human α-thrombin; peptide 5.21E-01 uM): 78.3 and 65.6 and 76.6
- Human alpha thrombin inhibition, slope normalized to DMSO (human α-thrombin; peptide 6.36E-05 uM): 105.9 and 99.3 and 96.8
- Human alpha thrombin inhibition, slope normalized to DMSO (human α-thrombin; peptide 6.51E-02 uM): 92.3 and 91.0 and 94.1
- Human alpha thrombin inhibition, slope normalized to DMSO (human α-thrombin; peptide 6.67E+01 uM): 5.1 and 4.9 and 7.0
- Human alpha thrombin inhibition, slope normalized to DMSO (human α-thrombin; peptide 8.14E-03 uM): 97.0 (2×) and 91.0
- Human alpha thrombin inhibition, slope normalized to DMSO (human α-thrombin; peptide 8.33E+00 uM): 19.7 and 13.2 and 20.2
SMILES: O=C(N[C@H]1CSCCS(=O)(=O)CCSCCNC(=O)C2(CC2)CNC(=O)[C@H](Cc2ccccc2)NC1=O)c1ccc(Cl)s1 [compound 16]
